Measurements published in publication PMC12166061, “Crystallographic fragment screening reveals ligand hotspots in TRIM21 PRY-SPRY domain” (Communications Chemistry, 2025).
Read-outs that look alike come from different tables or passages of the source.

Tests used:
Type in all cases: binding
[1] = biological target: T1, murine TRIM21 PRY-SPRY domain (Mus musculus, UniProt Q62191); test: Differential scanning fluorimetry (DSF, ΔTm), mouse TRIM21 PRY-SPRY domain
T1 construct: mouse TRIM21 PRY-SPRY domain (residues V291-M470, UniProt-ID: Q62191); made in house; host or cells: E. coli BL21(DE3)
T1 sequence (Q62191 291-470): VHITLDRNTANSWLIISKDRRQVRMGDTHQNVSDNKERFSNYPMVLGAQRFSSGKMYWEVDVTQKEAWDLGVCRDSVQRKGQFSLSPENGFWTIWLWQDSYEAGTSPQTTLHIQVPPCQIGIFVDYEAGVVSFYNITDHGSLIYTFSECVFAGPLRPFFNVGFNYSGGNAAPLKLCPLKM
Experimental: (§1) Briefly, recombinant murine and human TRIM21 PRY-SPRY domain at a concentration of 8 μM were mixed with 2 mM compound in their respective SEC buffer. SYPRO Orange (5000×, Invitrogen) was added as a fluorescence probe (1 µl per mL). Subsequently, temperature-dependent protein unfolding profiles were measured using the QuantStudio™ 5 realtime PCR machine (Thermo Fisher). Excitation and emission filters were set to 465 nm and 590 nm, respectively. The temperature was raised with a step rate of 3 °C per minute. Data points were analysed with the internal software (Thermal Shift SoftwareTM Version 1.4, Thermo Fisher) using the Boltzmann equation to determine the inflection point of the transition curve.

[2] = biological target: T2, human TRIM21 PRY-SPRY domain (Homo sapiens, UniProt P19474); test: Differential scanning fluorimetry (DSF, ΔTm), human TRIM21 PRY-SPRY domain
T2 construct: Human TRIM21 PRY-SPRY domain (residues V287-I465, UniProt-ID: P19474); His6 (N, cleaved yes); SUMO (N, cleaved yes); made in house; host or cells: E. coli BL21(DE3)
T2 sequence (P19474 287-465): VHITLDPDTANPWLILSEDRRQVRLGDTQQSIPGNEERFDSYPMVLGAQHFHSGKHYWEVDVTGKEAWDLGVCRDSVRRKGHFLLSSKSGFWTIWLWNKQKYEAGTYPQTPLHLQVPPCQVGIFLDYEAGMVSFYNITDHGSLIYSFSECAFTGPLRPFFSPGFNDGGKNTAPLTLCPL
Experimental: as §1

His-mTRIM21 PRYSPRY = biological target: T3, His-mTRIM21 PRYSPRY (Mus musculus, UniProt Q62191); test: SPR fragment screening and dose response, mouse TRIM21 PRY-SPRY
T3 construct: mouse TRIM21 PRY-SPRY domain (residues V291-M470, UniProt-ID: Q62191); made in house; host or cells: E. coli BL21(DE3)
T3 sequence (Q62191 291-470): T1 sequence (Q62191 291-470)
Experimental: (§2) His-mTRIM21 PRYSPRY and His-SUMO-hTRIM21 PRY-SPRY were immobilized onto flow channels (FC) FC2, FC3, and FC4 of a Series S sensor chip NTA (Cytiva). […] Proteins (10–20 µg mL^−1 in HBS-P+) were injected at 10 µL min^−1 to achieve response levels of 3500–4300 RU for mTRIM21 and 3600–4000 RU for hTRIM21. Flow channel 1 (FC1) was used as a reference surface. Surface deactivation and nickel stripping were achieved using 1 M ethanolamine and 350 mM ethylenediaminetetraacetic acid (EDTA), respectively.
(§3) Fragment screening was conducted by injecting 500 µM fragments diluted in running buffer (HBS-P+ with 1 mM TCEP and 2% (v/v) dimethyl sulfoxide (DMSO)) over all flow-channels for 30 s at 30 µL/min^−1. To account for surface drift, 50 µM of a control compound (Suramin) was injected every 15 fragment injections, and blank injections were performed every 5 fragments. Responses were analyzed by blank subtraction, reference subtraction (FC1), solvent correction, molecular weight adjustment, and drift correction using Biacore T200 Evaluation Software v3.2.1. The binding threshold for fragment hits was set based on the Suramin-binding response level.
The data was solvent-corrected, reference-subtracted (FC1), and blank-subtracted using the T200 Evaluation Software v3.2.1. Sensorgrams were subsequently replotted using Graphpad v.9 software.

[3] = biological target: T4, His-SUMO-hTRIM21 PRY-SPRY (Homo sapiens, UniProt P19474); test: SPR fragment screening, human TRIM21 PRY-SPRY
T4 construct: Human TRIM21 PRY-SPRY domain (residues V287-I465, UniProt-ID: P19474); made in house; host or cells: E. coli BL21(DE3)
T4 sequence (P19474 287-465): as above
Experimental: as §2, §3

[4] = single dose 500 µM fragment, relative response, suramin reference threshold 100 relative RU

Structure (SMILES): CC1CN(C(=O)c2cnsn2)C(C)CO1 (stereo not drawn) [Fragment Z768399682]
- Tm-shift mTRIM21 ([1]; 2 mM compound, 8 μM protein): -0.3 °C
- Tm-Shift hTRIM21 ([2]; 2 mM compound, 8 μM protein): 0 °C
- SPR mTRIM21 (Response) (His-mTRIM21 PRYSPRY; [4]): 24.2
- SPR hTRIM21 (Response) [3, 4]: 20.05

Structure (SMILES): Cl.O=C(c1cn[nH]c1)N1CCCC1 [Fragment Z1266933824]
- Tm-shift mTRIM21 [1]: -0.3 °C
- Tm-Shift hTRIM21 [2]: -0.1 °C
- SPR mTRIM21 (Response) (His-mTRIM21 PRYSPRY): 127.7
- SPR hTRIM21 (Response) [3]: 193.6

Structure (SMILES): O=C(O)COCc1ccccc1 [Fragment Z993967070]
- Tm-shift mTRIM21 [1]: -0.3 °C
- Tm-Shift hTRIM21 [2]: 0 °C
- SPR mTRIM21 (Response) (His-mTRIM21 PRYSPRY): 63.84
- SPR hTRIM21 (Response) [3]: 56.18

Structure (SMILES): CC(=O)NCCc1ccccc1C [Fragment Z52314092]
- Tm-shift mTRIM21 ([1]; 2 mM compound, 8 μM protein): -0.3 °C
- Tm-Shift hTRIM21 ([2]; 2 mM compound, 8 μM protein): -0.4 °C
- SPR mTRIM21 (Response) (His-mTRIM21 PRYSPRY; [4]): 79.62
- SPR hTRIM21 (Response) [3, 4]: 75.76

Structure (SMILES): CS(=O)(=O)NC1CCOC2(CCCC2)C1 (stereo not drawn) [Fragment Z1446981563]
- Tm-shift mTRIM21 ([1]; 2 mM compound, 8 μM protein): -0.4 °C
- Tm-Shift hTRIM21 ([2]; 2 mM compound, 8 μM protein): -0.1 °C
- SPR mTRIM21 (Response) (His-mTRIM21 PRYSPRY; [4]): 27.71
- SPR hTRIM21 (Response) [3, 4]: 28.35

Structure (SMILES): CC(=O)Nc1cc2c(cc1C)OCO2 [Fragment Z1635496816]
- Tm-shift mTRIM21 ([1]; 2 mM compound, 8 μM protein): 0 °C
- Tm-Shift hTRIM21 ([2]; 2 mM compound, 8 μM protein): 0.1 °C
- SPR mTRIM21 (Response) (His-mTRIM21 PRYSPRY; [4]): 140.9
- SPR hTRIM21 (Response) [3, 4]: 148.8

Structure (SMILES): c1cnc(N2CCC3(CCOC3)C2)cn1 (stereo not drawn) [Fragment Z1401276297]
- Tm-shift mTRIM21 ([1]; 2 mM compound, 8 μM protein): 0.2 °C
- Tm-Shift hTRIM21 ([2]; 2 mM compound, 8 μM protein): 0.6 °C
- SPR mTRIM21 (Response) (His-mTRIM21 PRYSPRY; [4]): 374.2
- SPR hTRIM21 (Response) [3, 4]: 640.3

Structure (SMILES): CCc1ncc(CNC)s1 [Fragment Z1267773633]
- Tm-shift mTRIM21 ([1]; 2 mM compound, 8 μM protein): -0.4 °C
- Tm-Shift hTRIM21 ([2]; 2 mM compound, 8 μM protein): -0.4 °C
- SPR mTRIM21 (Response) (His-mTRIM21 PRYSPRY; [4]): 58.5
- SPR hTRIM21 (Response) [3, 4]: 45.3

Structure (SMILES): CC(=O)N1CCCC2(CCCCCC2)C1 [Fragment Z1275599911]
- Tm-shift mTRIM21 ([1]; 2 mM compound, 8 μM protein): -1.3 °C
- Tm-Shift hTRIM21 ([2]; 2 mM compound, 8 μM protein): -0.9 °C
- SPR mTRIM21 (Response) (His-mTRIM21 PRYSPRY; [4]): 32.73
- SPR hTRIM21 (Response) [3, 4]: 30.21

Structure (SMILES): CCC(=O)Nc1nc(C)cs1 [Fragment Z30820160]
- Tm-shift mTRIM21 [1]: -0.5 °C
- Tm-Shift hTRIM21 [2]: -0.2 °C
- SPR mTRIM21 (Response) (His-mTRIM21 PRYSPRY): 15.6
- SPR hTRIM21 (Response) [3]: 46.05

Structure (SMILES): OC1CN(C(c2ccccc2)c2ccccc2)C1 [Fragment Z1696844792]
- Tm-shift mTRIM21 ([1]; 2 mM compound, 8 μM protein): -0.5 °C
- Tm-Shift hTRIM21 ([2]; 2 mM compound, 8 μM protein): -0.8 °C
- SPR mTRIM21 (Response) (His-mTRIM21 PRYSPRY; [4]): 107.8
- SPR hTRIM21 (Response) [3, 4]: 122.6

Structure (SMILES): Cc1cc(Cn2nc(C)ccc2=O)on1 [Fragment Z1079512010]
- Tm-shift mTRIM21 ([1]; 2 mM compound, 8 μM protein): -0.3 °C
- Tm-Shift hTRIM21 ([2]; 2 mM compound, 8 μM protein): -0.1 °C
- SPR mTRIM21 (Response) (His-mTRIM21 PRYSPRY; [4]): 50.4
- SPR hTRIM21 (Response) [3, 4]: 45.75

Structure (SMILES): CC(=O)Nc1ccc(CN2CCOCC2)cc1 [Fragment Z57450788]
- Tm-shift mTRIM21 ([1]; 2 mM compound, 8 μM protein): 0 °C
- Tm-Shift hTRIM21 ([2]; 2 mM compound, 8 μM protein): 0.4 °C
- SPR mTRIM21 (Response) (His-mTRIM21 PRYSPRY; [4]): 64.68
- SPR hTRIM21 (Response) [3, 4]: 43.78

Structure (SMILES): CN(C)c1ccncc1 [Fragment Z1245793018]
- Tm-shift mTRIM21 ([1]; 2 mM compound, 8 μM protein): 0.1 °C
- Tm-Shift hTRIM21 ([2]; 2 mM compound, 8 μM protein): 0 °C
- SPR mTRIM21 (Response) (His-mTRIM21 PRYSPRY; [4]): 131.3
- SPR hTRIM21 (Response) [3, 4]: 47.83

Structure (SMILES): COC1CN(S(=O)(=O)N2CCCC2)C1 [Fragment Z1343518214]
- Tm-shift mTRIM21 [1]: -0.1 °C
- Tm-Shift hTRIM21 [2]: 0.2 °C
- SPR mTRIM21 (Response) (His-mTRIM21 PRYSPRY): 38.32
- SPR hTRIM21 (Response) [3]: 34.32

Structure (SMILES): O=C(NC1CC1)c1cnn2cccnc12 [Fragment Z285642082]
- Tm-shift mTRIM21 [1]: -0.3 °C
- Tm-Shift hTRIM21 [2]: -0.2 °C
- SPR mTRIM21 (Response) (His-mTRIM21 PRYSPRY): 44.74
- SPR hTRIM21 (Response) [3]: 43.71

Structure (SMILES): NC(=O)N1CCN(C(=O)c2ccco2)CC1 [Fragment Z198194396]
- Tm-shift mTRIM21 ([1]; 2 mM compound, 8 μM protein): -0.2 °C
- Tm-Shift hTRIM21 ([2]; 2 mM compound, 8 μM protein): -0.2 °C
- SPR mTRIM21 (Response) (His-mTRIM21 PRYSPRY; [4]): 38.54
- SPR hTRIM21 (Response) [3, 4]: 34.19

Structure (SMILES): O=C1CN(Cc2ccccc2)CC(=O)N1 [Fragment Z3220108246]
- Tm-shift mTRIM21 ([1]; 2 mM compound, 8 μM protein): -0.5 °C
- Tm-Shift hTRIM21 ([2]; 2 mM compound, 8 μM protein): -0.1 °C
- SPR mTRIM21 (Response) (His-mTRIM21 PRYSPRY; [4]): 58.83
- SPR hTRIM21 (Response) [3, 4]: 60.94
